Literature values, collected in patent publication US10350288B2, “Methods and compositions for treating herpes” (Genocea Biosciences, Inc., priority 2016, dated 2019).
Read-outs that look alike come from different tables or passages of the source.

Key:
HSV-2 [1] = system: HSV-2
HSV-2 [2] = conditions: human, in vivo
HSV [3] = conditions: patients with genital herpes
HSV [4] = conditions: once-daily; efficacy comparable to valacyclovir twice daily for 3 days

In the case of `CC(C)[C@H](N)C(=O)OCCOCn1cnc2c(=O)[nH]c(N)nc21` [valacyclovir], the “proportion of patients who remained recurrence-free” value (HSV-2 [1]; at 6 months, placebo 7%) is given as 55%, the “proportion of patients who remained recurrence-free” value (HSV-2 [1]; at 12 months, placebo 4%) is given as 34% and the “reduction of transmission of HSV-2 from infected persons to uninfected partners” value (HSV-2 [2]) is given as 48%.
For `Cc1nc(N(C)C(=O)Cc2ccc(-c3ccccn3)cc2)sc1S(N)(=O)=O` [Pritelivir, pritelivir], the “reduction of viral shedding and lesion rate” value (HSV [3]) is listed as “has shown efficacy”.
For `Cc1cccc(C)c1N(CC(=O)Nc1ccc(-c2ncon2)cc1)C(=O)C1CCS(=O)(=O)CC1` [amenamevir], the “time to lesion healing shortened by” value (HSV [4]) is given as 1 to 2 days.
For `Nc1nc2c(ncn2CCC(CO)CO)c(=O)[nH]1` [Penciclovir, penciclovir], the oral bioavailability is listed as “not orally bioavailable”.
